# Data taken from US20040143021A1, “Compositions and methods for improving recovery after general anesthesia” (priority 2003, published 2004).
# Key:
# [1] = tested on: patients scheduled for same day surgery under general anesthesia; test: Randomized, double blind, parallel group clinical study of modafinil vs placebo on recovery after general anesthesia (symptom evaluation by verbal analog scale); assay type: in vivo; details: for Appetite, verbal analog score, mean (SD) / Ease of sleep, verbal analog score, mean (SD) / Energy, verbal analog score, mean (SD) / Exhaustion, verbal analog score, mean (SD) / Fatigue, verbal analog score, mean (SD) / Nausea, verbal analog score, mean (SD) / Reading ability, verbal analog score, mean (SD) / Restless, verbal analog score, mean (SD) / Tense, verbal analog score, mean (SD) / Worn out, verbal analog score, mean (SD): VAS 0 to 10; for Operative distress, point value: total of 60 possible points
# Excerpt: Informed consents were obtained from patients scheduled to undergo outpatient surgical procedures under general anesthesia to participate in this prospective study approved by an institutional review board. In this study, the clinical activity of modafinil to improve recovery post-anesthesia was examined in a randomized, double blind, parallel group study. Thirty-four (34) patients scheduled for same day surgery under general anesthesia participated in this prospective study. Patients were American Society of Anesthesiology physical status I-II, with a Body-Mass-Index <40 without any known significant renal, hepatic, cardiovascular, neurological, gastrointestinal, endocrine, hematologic, or pulmonary diseases as judged by the investigator. A history of epilepsy, alcoholism, or chronic use of opioids also excluded the patients from participation in this study. Patients were asked to rate various symptoms they had experienced over the previous 24-hour period using a verbal analog scale (VAS) rating of 0 to 10, as well as discrete scores when indicated. The symptom evaluation included headache, dizziness, level of energy, appetite, nausea, pain, vomiting, degree of being tense, clear-headedness, restlessness, fatigue, exhaustion, quality of sleep during the previous night, need for the help from a caregiver, the ability to read, comprehend, and communicate.
# Anesthetic management of the patients was at the discretion of the attending anesthesiologist. Patients were monitored post-operatively, and cared for according to institutional standards. Once the patient was able to tolerate oral intake of liquids, the study drug (modafinil, 200 mg) or placebo was administered, randomly, with a sip of water. Patients were discharged according to institutional standards. Patients were contacted 24 (+1) hours after dosing for symptom evaluation and the same questions were asked. Patients were also asked whether the study drug they received had any beneficial effect. If the patient felt they received a benefit from the study drug they were asked to describe the benefit in their own words.
# The study group included 24 female and 10 male patients (n=17 per group). The demographics of the groups are shown below in Table 1. There were no significant differences in age, height, weight, or gender distribution between the two groups.
# Almost all patients had received the same type of anesthetic management including propofol, a narcotic, a volatile agent, a muscle relaxant, nitrous oxide, and oxygen. Patients had undergone mostly orthopedic or gynecological surgical procedures. Surgical procedures or the exact doses of anesthetics were not compared between the groups.
# There were no significant differences in preoperative symptoms reported between the two groups (modafinil versus placebo; Table 2). As expected, patients were tenser, more restless, and less relaxed pre-operatively (in both groups). […] Operative distress was defined as a lack of energy, presence of feeling worn out, fatigue, exhaustion, mental clouding, and problem reading (comprehending) (total of 60 possible points to define the most severe Operative distress). In the modafinil group, the point value for operative distress was 10.5±6.0, preoperatively, increasing to 11.3±9.1, postoperatively. The corresponding values for operative distress in the placebo group were 13.4±11.9, pre-operatively, and 21.0±13.8, post-operatively.
# sleep-deprived pilots = details: in vivo; cited from earlier work
# [2] = tested on: patients with excessive daytime sleepiness associated with narcolepsy; details: clinical trials, 200 mg/d and 400 mg/d; cited from earlier work
# [3] = post-operative minus pre-operative, modafinil 200 mg
# [4] = post-operative, 24 h after modafinil 200 mg oral, n = 17
# [5] = pre-operative (before dosing), n = 17
# [6] = share of patients, modafinil 200 mg, n = 17
smiles,measurement,setting,value
NC(=O)C[S+]([O-])C(c1ccccc1)c1ccccc1 (stereo not drawn) [Modafinil],"Patients expressing themes of ""alertness"" and ""energy"" as benefit of study drug","[1]; content analysis of comments, modafinil group, p<0.05 vs 18% placebo",71%
same,Exhaustion postoperatively compared with placebo,[1]; modafinil 200 mg vs placebo,significantly less exhausted
same,Fatigue postoperatively compared with placebo,[1]; modafinil 200 mg vs placebo,significantly less fatigue
same,Feeling worn out postoperatively compared with placebo,[1]; modafinil 200 mg vs placebo,significantly less worn out
same,Feelings of alertness and energy in patients recovering from general anesthesia,[1]; modafinil 200 mg vs placebo,"significantly improved feelings of alertness, and energy"
same,Post-operative distress compared with placebo,[1]; modafinil 200 mg vs placebo,significantly less post-operative distress
same,Patients complaining of not being able to fall asleep at night,"[1]; modafinil group (n = 17), four in placebo group",one
same,Patients complaining of moderate-to-severe fatigue,[1]; modafinil treatment group vs 65% placebo,12%
same,"Appetite, verbal analog score, difference",[1]; [3],−1.8
same,"Ease of sleep, verbal analog score, difference",[1]; [3],−0.3
same,"Energy, verbal analog score, difference",[1]; [3],−1.3
same,"Exhaustion, verbal analog score, difference",[1]; [3],0.2
same,"Fatigue, verbal analog score, difference",[1]; [3],−0.2
same,"Nausea, verbal analog score, difference",[1]; [3],1.3
same,"Reading ability, verbal analog score, difference",[1]; [3],0.2
same,"Restless, verbal analog score, difference",[1]; [3],−2.0
same,"Tense, verbal analog score, difference",[1]; [3],−3.2
same,"Worn out, verbal analog score, difference",[1]; [3],−0.6
same,"Appetite, verbal analog score, mean (SD)",[1]; [4],6.1 (3.8)
same,"Ease of sleep, verbal analog score, mean (SD)",[1]; [4],6.2 (3.6)
same,"Energy, verbal analog score, mean (SD)",[1]; [4],6.2 (3.5)
same,"Exhaustion, verbal analog score, mean (SD)",[1]; [4],2.4 (3.1)
same,"Fatigue, verbal analog score, mean (SD)",[1]; [4],1.4 (1.8)
same,"Nausea, verbal analog score, mean (SD)",[1]; [4],1.9 (3.5)
same,"Reading ability, verbal analog score, mean (SD)",[1]; [4],9.2 (1.6)
same,"Restless, verbal analog score, mean (SD)",[1]; [4],2.5 (3.0)
same,"Tense, verbal analog score, mean (SD)",[1]; [4],2.2 (3.2)
same,"Worn out, verbal analog score, mean (SD)",[1]; [4],2.9 (2.4)
same,"Mental limitation to resume activity, verbal analog score, mean (SD)",[1]; [4],0.6 (1.6)
same,"Operative distress, point value","[1]; postoperatively, modafinil 200 mg",11.3±9.1
same,"Appetite, verbal analog score, mean (SD)",[1]; [5],7.9 (2.9)
same,"Ease of sleep, verbal analog score, mean (SD)",[1]; [5],6.5 (3.3)
same,"Energy, verbal analog score, mean (SD)",[1]; [5],7.5 (2.8)
same,"Exhaustion, verbal analog score, mean (SD)",[1]; [5],2.2 (3.3)
same,"Fatigue, verbal analog score, mean (SD)",[1]; [5],1.6 (2.7)
same,"Nausea, verbal analog score, mean (SD)",[1]; [5],0.6 (2.4)
same,"Reading ability, verbal analog score, mean (SD)",[1]; [5],9.0 (2.1)
same,"Restless, verbal analog score, mean (SD)",[1]; [5],4.5 (3.7)
same,"Tense, verbal analog score, mean (SD)",[1]; [5],5.4 (3.6)
same,"Worn out, verbal analog score, mean (SD)",[1]; [5],3.5 (3.4)
same,"Operative distress, point value","[1]; preoperatively, modafinil group",10.5±6.0
same,"Fatigue, % with rating > 3",[1]; [6],18%
same,"Fatigue, % with rating ≧ 5",[1]; [6],12%
same,"Worn out, % with rating > 3",[1]; [6],41%
same,"Worn out, % with rating ≧ 5",[1]; [6],29%
same,Fatigue and confusion in sleep-deprived pilots,sleep-deprived pilots,reduce fatigue and confusion
same,Daytime wakefulness,[2],significantly improve daytime wakefulness
same,Effect on nighttime sleep,[2],without affecting nighttime sleep
